From patent EP0473671B1, “USE OF SIGMA-RECEPTORS LIGANDS FOR THE MANUFACTURE OF AN ANXIOLYTIC AGENT” (STATE OF OREGON BY AND THROUGH OREGON STATE BOARD OF HIGHER …, priority 1989, dated 1990)
Like-named read-outs stand apart in the source and are kept apart here.

Legend:
[1] = target: sigma receptors; assay: Sigma receptor binding assay, displacement of [³H]DTG; settings: guinea pig brain membrane homogenates, radioligand [³H]DTG […], 90 minutes at room temperature; read-out: IC₅₀ binding values
Protocol: Briefly, frozen whole guinea-pig brains (Biotrol, Indianapolis, IN) were homogenized in 10 volumes (w/v) of ice-cold 320 mM sucrose using a Brinkman polytron. The homogenate was centrifuged at 1,000 x g for 20 minutes at 4°C. The supernatant was centrifuged at 20,000 x g for 20 minutes at 4°C. The resulting pellet was resuspended in 10 initial volumes of 50 mM Tris/HCl buffer at pH 7.4 and centrifuged at 20,000 x g for 20 minutes at 4°C. The resulting pellet was resuspended in 5 initial volumes ice-cold 50mM Tris/Hcl (pH .4), and the final volume was adjusted to yield a protein concentration of 3 mg/ml, as determined by dye-binding protein assay (Biorad) using BSA as the standard.
Incubations were terminated after 90 minutes at room temperature by addition of 4 ml of ice-cold 50mM Tris/HCl (pH 7.4) and rapid filtration of the membrane suspension through Whatman GF/B glass-fiber filters under vacuum, using a 48-well cell harvester (Brandel, Gaithersburg, MD). The filters were washed 2 times with 4 ml of 50 mM Tris/HCl (pH 7.4). Total filtration and washing time was less than 20 seconds. Each filter was dissolved in 10 ml Cytoscint (Westchem, San Diego, CA), and radioactivity was measured by liquid scintillation spectrometry at a counting efficiency of approximately 50%. IC₅₀ values were determined by interpolation from displacement-curve plots on semilogarithmic graph paper.

[2] = tested on: male albino BKW mice; assay: Light/dark exploration of mice (black:white test box); settings: for numbers of rears and line crossings at the highest dose (sedation) / latency to entering the dark compartment: subcutaneously; for numbers of rears and line crossings at the highest dose (sedation): 0.1 mg/kg, drug not sedative at this level; for numbers of rears and line crossings compared with controls (sedation): not sedative at the dosage level
[3] = tested on: Male Hooded Lister rats; assay: Rat social interaction test; format: in vivo; settings: for social interactions: 40 min. before testing, 10 min session, n = 6
Description: A second preferred animal model is the rat social interaction test described by Jones, B.J. et al., supra, wherein the time that two mice spend in social interaction is quantified. […] Both the familiarity and the light level of the test arena may be manipulated. Undrugged rats show the highest level of social interaction when the test arena is familiar and is lit by low light. Social interaction declines if the arena is unfamiliar to the rats or is lit by bright light. Anxiolytic agents prevent this decline. The overall level of motor activity may also be measured to allow detection of drug effects specific to social behaviors.
Male Hooded Lister rats (Glaxo bred, 200-250g), were housed 5 to a cage and were kept in the laboratory environment for at least a week before testing. Rats paired in the test were taken from separate cages.
The test arena consisted of an open-topped box, 62 x 62 x 33 cm with a 7 x 7 matrix of infra-red photocell beams in the walls, 2.5 cm from the floor.
Testing involved placing each member of a pair of rats in opposite corners of the arena and then leaving them undisturbed for 10 min. while recording their behavior remotely on videotape. The behavioral assessments were made subsequently from the recordings. The time spent in social interaction was measured and expressed as a cumulative total for the 10 min session. The behaviors that comprised social interaction were: following with contact, sniffing (but not sniffing of the hindquarters), crawling over and under, tumbling, boxing and grooming.
N-adamantyl-N'-o-tolylguanidine was tested over the range of 0.001-0.1 mg/kg.

[4] = tested on: male albino BKW mice; settings: mouse, in vivo
[5] = subcutaneously 40 min before testing, 0.01 ug to 0.1 mg/kg
[6] = 0.01 ug to 0.1 mg/kg, result in words

Cc1ccccc1NC(=N)N[C@@H]1C[C@@H]2CC[C@H]1C2 (racemic) [N-((±)-endo-2-norbornyl)-N'-(2-methylphenyl)guanidine]
IC50 [1]: 6 nM

O=C1CC2(CCCC2)CC(=O)N1CCCCN1CCN(c2nsc3ccccc23)CC1 [tiospirone, reference compound]
IC50 [1]: 233 ± 52 nM

N=C(Nc1ccccc1I)N[C@H]1C[C@@H]2CC[C@H]1C2 (relative stereo) [N-(exo-2-norbornyl)-N'-(2-iodophenyl)guanidine]
IC50 [1]: 4 nM

Cc1ccccc1NC(=N)NC1C2CC3CC(C2)CC1C3 (centres unmarked) [N-(adamant-2-yl)-N'-(2-methylphenyl)guanidine]
IC50 [1]: 7 nM

CN(C)CCCN1c2ccccc2Sc2ccc(Cl)cc21 [chlorpromazine, reference compound]
IC50 [1]: 1480 ± 265 nM

N-(adamant-1-yl)-N'-[(E)-2-phenylethenyl]phenylguanidine
IC50 [1]: 1000 nM
numbers of line crossings and rears in the light compartment [2, 5]: tended to remain the same except at the highest dosage
proportion of time the mice spent in the larger, lighted area of the test chamber [2, 5]: generally did not increase
numbers of rears and line crossings at the highest dose (sedation) [2]: did not decrease significantly

Cc1ccccc1NC(=N)NC1CCCCC1 [N-cyclohexyl-N'-(2-methylphenyl)-guanidine]
IC50 [1]: 13 nM

Cc1ccccc1NC(=N)NC12CC3CC(CC(C3)C1)C2 [AdTG, N-(o-tolyl)-N'-(adamant-1-yl)guanidine]
social interactions ([3]; 0.001-0.1 mg/kg i.p.): significantly increased
dose producing about the same result, relative to the dose of diazepam ([3]; 1 mg/kg for diazepam and 0.1 mg/kg for N-adamantyl-N'-o-tolylguanidine): one-tenth
anxiolytic activity when orally administered ([2]; orally administered, 1 mg/kg): anxiolytic activity
numbers of line crossings and rears in the light compartment ([2]; orally administered, 1 mg/kg): increased at the expense of those in the dark compartment
proportion of time the mice spent in the larger, lighted area of the box ([2]; orally administered, 1 mg/kg): increased significantly
numbers of line crossings and rears in the light compartment [2, 5]: increased at the expense of those in the dark compartment
proportion of time the mice spent in the larger, lighted area of the test chamber [2, 5]: dose dependently increased
latency to entering the dark compartment [2, 6]: increased in a dose dependant manner
numbers of rears and line crossings at the highest dose (sedation) [2]: did not decrease significantly

C=CCN1CC[C@@]2(C)c3cc(O)ccc3C[C@@H]1[C@@H]2C [(-)-SKF10047, reference compound]
IC50 [1]: 4000 ± 566 nM

N=C(NC12CC3CC(CC(C3)C1)C2)NC12CC3CC(CC(C3)C1)C2 [DAG, N,N'-di(adamant-1-yl)guanidine]
anxiolytic activity when orally administered ([2]; orally administered, 1 mg/kg): anxiolytic activity
latency to entering the dark compartment in comparison to controls ([2]; orally administered, 1 mg/kg): increase
numbers of line crossings and rears in the light compartment ([2]; orally administered, 1 mg/kg): increase
numbers of rears and line crossings compared with controls (sedation) ([2]; orally administered, 1 mg/kg): did not decrease significantly
numbers of line crossings and rears in the light compartment [2, 5]: increased at the expense of those in the dark compartment
proportion of time the mice spent in the larger, lighted area of the test chamber [2, 5]: tended to increase
numbers of rears and line crossings at the highest dose (sedation) [2]: did not decrease significantly
latency to entering the dark compartment ([2]; peak effect at 0.01 ug/kg, controls 12 sec): 20 s

CNC(=N)NC [DMG, N,N'-di(methyl)guanidine]
IC50 [1]: > 100000 nM

Cc1ccccc1NC(=N)NC1CCCCC1 [DChG, N-(o-tolyl)-N'-(cyclohexyl)guanidine]
IC50 [1]: 86 ± 17 nM

NC(=Nc1ccccc1I)NC12CC3CC(CC(C3)C1)C2 [AdIpG, N-(2-iodophenyl)-N'-(adamant-1-yl)guanidine]
IC50 [1]: 6.2 nM
anxiolytic activity when orally administered ([2]; orally administered, 1 mg/kg): anxiolytic activity
latency to entering the dark compartment in comparison to controls ([2]; orally administered, 1 mg/kg): increase
numbers of line crossings and rears in the light compartment ([2]; orally administered, 1 mg/kg): increase
numbers of rears and line crossings compared with controls (sedation) ([2]; orally administered, 1 mg/kg): did not decrease significantly
numbers of line crossings and rears in the light compartment [2, 5]: increased at the expense of those in the dark compartment
proportion of time the mice spent in the larger, lighted area of the test chamber [2, 5]: increased, in a dose dependant manner
latency to entering the dark compartment [2, 6]: increased in a dose dependant manner
numbers of rears and line crossings at the highest dose (sedation) [2]: did not decrease significantly

Cc1cccc(C)c1NC(=N)Nc1c(C)cccc1C [DXG, N,N'-di-(2,6-dimethylphenyl)-guanidine]
IC50 [1]: 90 ± 18 nM

Cc1ccccc1NC(=N)N[C@H]1C[C@@H]2CC[C@H]1C2 (relative stereo) [N-(exo-2-norbornyl)-N'-(2-methylphenyl)guanidine]
IC50 [1]: 7 nM

N=C(Nc1ccccc1I)N[C@@H]1C[C@@H]2CC[C@H]1C2 (racemic) [N-((±)-endo-2-norbornyl)-N'-(2-iodophenyl)guanidine]
IC50 [1]: 5 nM

N,N-di(o-tolyl)-guanidine [DTG]
number of rears, crossings, or the % time in the black compartment ([2]; s.c., at the concentrations tested, Figure 7): did not affect significantly

CCN1CCCC1CNC(=O)c1cc(S(N)(=O)=O)ccc1OC (centres unmarked) [sulpiride, reference compound]
IC50 [1]: > 100 nM

N=C(NC1CCCCC1)NC12CC3CC(CC(C3)C1)C2 [AdChG, N-(cyclohexyl)-N'-(adamant-1-yl)guanidine]
IC50 [1]: 12.5 nM

CCCN1CCC[C@@H](c2cccc(O)c2)C1 [(-)-3-PPP, reference compound]
IC50 [1]: 280 ± 21 nM

N=C1Nc2ccccc2-c2ccccc2N1 [Bridge-DPG, 2-imino-1,3H-dibenzo[d,f]-[1,3]-diazepine]
IC50 [1]: > 100000 nM

N=C(Nc1ccccc1I)NC1C2CC3CC(C2)CC1C3 (centres unmarked) [N-adamant-2-yl)-N'-(2-iodophenyl)guanidine]
IC50 [1]: 3.5 nM

CN1C(=O)CN=C(c2ccccc2)c2cc(Cl)ccc21 [diazepam, reference compound]
social interactions ([3]; diazepam intraperitoneally 0.125-1 mg/kg): significantly increased
numbers of rears and line crossings at the highest dose (sedation) [4]: decreased significantly
numbers of line crossings and rears in the light compartment ([2]; mouse, in vivo): increased at the expense of those in the dark compartment
proportion of time the mice spent in the larger, lighted area of the test chamber ([2]; mouse, in vivo): dose-dependently increased

Cc1ccccc1NC(=N)Nc1ccc(N)cc1C [NH₂-DTG]
IC50 [1]: 280 ± 20 nM
